Consider 15 compounds from patent US3946018A, “1,4-Dihydro-3 (2H)-isoquinolinone derivatives” (priority 1973, dated 1976).

Data set [1] has as its system white mice. The experiment in a line: Maximum Electroshock Seizure Test (electroshock-inhibiting effect). The class given is in vivo, white mice of both sexes. The note with it: for Protective Index: ED50 rotarod divided by ED50 ES; for ED50: Mus musculus, read-out: ED50 ES. The protocol: (§1) The pharmacological properties of the new compounds were tested on white mice of both sexes, weighing 16 to 24 g. The new compounds were administered orally through a metal stomach tube, in the form of a 5 per cent suspension in a medium containing Tween 80 as suspending agent.
The electroshock-inhibiting effect of the compounds was examined on groups each consisting of 10, individually caged mice. The anticonvulsive activity was tested by the "Maximum Electroshock Seizure Test" of Swinyard, et al. (Epilepsia 10, 107 /1969/), and the inhibition of the tonic extension of the hind limbs was evaluated. […] The results were evaluated according to the method of Lichtfield and Wilcoxon. The electroshock was provoked using corneal electrodes, under the following parameters: 50 Hz, 0.3 sec. 3 msec; the current intensity varied between 28 and 34 mA (a current intensity was maintained that was sufficient to provoke spasm in each of the 10 animals).
The activities of the compounds with protecting effect against electroshock were compared by the so-called protective index, which was calculated by dividing the individual ED5o rotarod values with the corresponding ED5o ES values. The greater this ratio, the more remote the dosis protecting against electroshock is from the dosis causing muscle relaxation.
(§2) For comparison various known and widely used pharmacons, namely phenobarbital (5-ethyl-5-phenylbarbituric acid), phenytoin (5,5-diphenylhydantoine) and trimethadion (3,5,5-trimethyl-2,4-oxazolidine-dione) were also tested under the same conditions.
(In general: The rotarod test checks motor coordination on a turning rod.)

In data set [2] the test system is white mice. The experiment in a line: inhibition of pentamethylenetetrazole-provoked spasm. The class given is in vivo, white mice of both sexes. The following applies: Mus musculus, read-out: ED50 pentamethylenetetrazole. The protocol:
The inhibiting effect on pentamethylenetetrazoleprovoked spasm was tested on groups each consisting of 12 individually caged, randomized mice, by the method of Orloff (Proc. Soc. Exp. Biol. Med. N.Y., 70, 254 /1949/). The pentamethylenetetrazole spasm threshold was determined by the slow (0.05 ml./10 sec.) intravenous administration of a 0.5 % pentamethylenetetrazole solution, and the influence of the compounds on the spasm threshold was examined. In every case, the tonic extension of the hind limbs was regarded as spasm.

Data set [3] is described as follows: in vivo. The note with it: mouse, po. The protocol: as §1
The paralyzing effect of the compounds was tested on groups each consisting of 8 mice, by the rotarod test. The ED5o rotarod value corresponds to the dosis, which, one hour after the administration, causes 50 per cent of the test animals to fall down from the rotarod within 3 minutes. The neurotoxic activity was evaluated according to the method of Lichtfield and Wilcoxon.
as §2

Data set [4] has as its system white mice. The experiment in a line: acute oral toxicity (LD50) in mice. The following applies: mouse, in vivo, po. The protocol:
(§3) The LD5o values of the compounds were determined on groups each consisting of 8 mice. The results were evaluated according to the method of Lichtfield and Wilcoxon (J. Pharmacol. exp. Therap. 96, 99 / 1949/).

The nature of data set [5]: acute oral toxicity (LD50) in mice. The following applies: mouse, in vivo. The protocol: as §3
The mark [6] stands for this setting: oral, mice, 3 h., inhibition of tonic extension of the hind limbs, protection of 50 % of animals.
The mark [7] stands for this setting: oral, mice, 3 h., 0.5 % pentamethylenetetrazole slow i.v., tonic extension of the hind limbs regarded as spasm.

Molecules are shown by their SMILES. Counter-ions that a name gives are not always drawn. Like-named read-outs stand apart in the source and are kept apart here.

As usually defined, the ED50 is the midpoint of the dose-response relation. In general, LD50 refers to the dose expected to kill half of the subjects tested. In the case of `CC(C)NCC(=O)Nc1ccc(C2NC(=O)Cc3ccccc32)cc1` (centres unmarked) [Example 12, 1,4-Dihydro-1-(4'-/isopropylaminoacetyl/-aminophenyl)-3(2H)-isoquinolinone], the “Protective Index” value in data set [1] amounted to 26. Moreover, the ED50 in data set [1] (setting [6]) worked out at 10.5 mg/kg; in data set [2] (setting [7]) it was 100 mg/kg. The compound further displayed a TD50 in data set [3] of 270 mg/kg. The compound also had an LD50 in data set [4] of over 1000 mg/kg.

Regarding `O=C1NC(=O)C(c2ccccc2)(c2ccccc2)N1` [5,5-diphenyl-hidantoine, 5,5-diphenylhydantoine, reference compound], the “Protective Index” value in data set [1] came to 1.0. Further, the results for the ED50 in data set [1] (setting [6]) and in data set [2] (setting [7]) were 10 mg/kg and 25 mg/kg, respectively. Besides, the TD50 in data set [3] is 10 mg/kg. Also, the LD50 in data set [5] (oral, mice, read-out: LD50) turned out to be 300 mg/kg.

Regarding `CCC1(c2ccccc2)C(=O)NC(=O)NC1=O` [5-ethyl-5-phenyl-barbituric acid, 5-ethyl-5-phenylbarbituric acid, reference compound], in data set [1], the “Protective Index” value was determined as 2.5. Further, the ED50 is 15 mg/kg in data set [1] (po, 3 h) and 15 mg/kg in data set [2] (po, 3 h). The compound further gave a TD50 in data set [3] (in vivo) of 38 mg/kg. Further, the LD50 in data set [5] (oral, mice, read-out: LD50) worked out at 180 mg/kg.

As to `CCNCC(=O)Nc1ccc(C2NC(=O)Cc3ccccc32)cc1` (centres unmarked) [Example 9, 1,4-Dihydro-1-(4'-/ethylaminoacetyl/-amino-phenyl)-3(2H)-isoquinolinone], the “Protective Index” value in data set [1] was 51. For the same compound, the ED50 in data set [1] (setting [6]) was found to be 10.2 mg/kg; in data set [2] (setting [7]) it was 50 mg/kg. Further, the TD50 in data set [3] worked out at 520 mg/kg. Further, the 50% lethal dose (LD50) in data set [4] was over 1600 mg/kg.

For `CCCCNCC(=O)Nc1ccc(C2NC(=O)C(C)(C)c3ccccc32)cc1` (centres unmarked) [Example 15, 1,4-Dihydro-1-(4'-/butylaminoacetyl/-amino-phenyl)-4,4-dimethyl-3(2H)-isoquinolinone], in data set [1], the “Protective Index” value is reported as about 10. In addition, the median effective dose (ED50) in data set [1] (setting [6]) came out at 29 mg/kg. Besides, the TD50 in data set [3] was about 300 mg/kg. For the same compound, the LD50 in data set [5] (po) is over 1000 mg/kg.

For `CN1C(=O)OC(C)(C)C1=O` [3,5,5-trimethyl-2,4-oxazolidine-dione, reference compound], the “Protective Index” value in data set [1] is listed as 0.77. In addition, the values for the ED50 in data set [1] (setting [6]) and in data set [2] (setting [7]) were 440 mg/kg and 62 mg/kg, respectively. In data set [3], this compound showed a TD50 of 340 mg/kg. Besides, the LD50 in data set [5] (oral, mice, read-out: LD50) amounted to 1750 mg/kg.

Regarding `CCCNCC(=O)Nc1ccc(C2NC(=O)Cc3ccccc32)cc1` (centres unmarked) [Example 5, 1,4-Dihydro-1-(4'-/propylaminoacetyl/-amino-phenyl)-3(2H)-isoquinolinone], the “Protective Index” value in data set [1] amounted to 24. Further, the results for the ED50 in data set [1] (setting [6]) and in data set [2] (setting [7]) were 21 mg/kg and 50 mg/kg, respectively. Further, in data set [3], the TD50 was determined as 490 mg/kg. The compound further yielded a 50% lethal dose (LD50) in data set [5] (po) of about 2000 mg/kg.

Regarding `CC(C)NCC(=O)Nc1ccc(C2NC(=O)C(C)(C)c3ccccc32)cc1` (centres unmarked) [Example 14, 1,4-Dihydro-4,4-dimethyl-1-(4'-/isopropylaminoacetyl/-amino-phenyl)-3(2H)-isoqinolinone], the “Protective Index” value in data set [1] is on record as about 59. In addition, the ED50 in data set [1] (setting [6]) turned out to be 27 mg/kg. This compound also had a TD50 in data set [3] of about 1600 mg/kg. This compound registered an LD50 in data set [4] of over 2000 mg/kg.

For `CNCC(=O)Nc1ccc(C2NC(=O)C(C)(C)c3ccccc32)cc1` (centres unmarked) [Example 13, 1,4-Dihydro-4,4-dimethyl-1-(4'-/methylaminoacetyl/-amino-phenyl)-3(2H)-isoquinolinone maleate], the “Protective Index” value in data set [1] is about 32. For the same compound, in data set [1] (setting [6]), the median effective dose (ED50) turned out to be 25 mg/kg. In addition, in data set [3], the TD50 was about 800 mg/kg. In data set [4], this compound registered a 50% lethal dose (LD50) of over 2000 mg/kg.

As to `CCCNCC(=O)Nc1ccc(C2NC(=O)C(C)(C)c3ccccc32)cc1` (centres unmarked) [Example 6, 1,4-Dihydro-4,4-dimethyl-1-(4'-/propylaminoacetyl/-amino-phenyl)3-(2H)-isoquinolinone], in data set [1], the “Protective Index” value amounted to 13.6. Moreover, the results for the ED50 in data set [1] (setting [6]) and in data set [2] (setting [7]) were 32 mg/kg and 100 mg/kg, respectively. The compound also had a TD50 in data set [3] of 435 mg/kg. In data set [5] (po), this compound yielded an LD50 of 1600 mg/kg.

In the case of `CCNCC(=O)Nc1ccc(C2NC(=O)C(C)(C)c3ccccc32)cc1` (centres unmarked) [Example 10, 1,4-Dihydro-1-(4'-/ethylaminoacetyl/-amino-phenyl)-4,4-dimethyl-3(2H)-isoquinolinone], the “Protective Index” value in data set [1] is listed as about 2. The ED50 is over 300 mg/kg in data set [1] (setting [6]) and 50 mg/kg in data set [2] (setting [7]). The compound further gave a TD50 in data set [3] of 760 mg/kg. For the same compound, the median lethal dose (LD50) in data set [4] was over 2000 mg/kg.

With `CCCNCC(=O)Nc1ccc(C2NC(=O)C(C(C)C)c3ccccc32)cc1` (centres unmarked) [Example 8, 1,4-Dihydro-4-isopropyl-1-(4'-/propylaminoacetyl/-amino-phenyl)-3(2H)-isoquinolinone], in data set [1], the “Protective Index” value is about 2.5. Also, the median effective dose (ED50) in data set [1] (setting [6]) was about 20 mg/kg; in data set [2] (setting [7]), 50 mg/kg. The same compound showed a TD50 in data set [3] of about 50 mg/kg. Besides, the median lethal dose (LD50) in data set [5] (po) fell in the range of 600 to 800 mg/kg.

Turning to `CCCNCC(=O)Nc1ccc(C2NC(=O)C(C)c3ccccc32)cc1` (centres unmarked) [Example 7, 1,4-Dihydro-4-methyl-1-(4'-/propylaminoacetyl/-aminophenyl)-3(2H)-isoquinolinone], the “Protective Index” value in data set [1] was determined as 15.4. Besides, the median effective dose (ED50) came out at 22 mg/kg in data set [1] (setting [6]) and 50 mg/kg in data set [2] (setting [7]). In data set [3], this compound showed a TD50 of 340 mg/kg. Moreover, the LD50 in data set [4] was over 1600 mg/kg.

In the case of `CNCC(=O)Nc1ccc(C2NC(=O)Cc3ccccc32)cc1` (centres unmarked) [Example 11, 1,4-Dihdryo-1-(4'-/methylaminoacetyl/-amino-phenyl)-3(2H)-isoquinolinone], in data set [1], the “Protective Index” value is recorded as about 12. For the same compound, the 50% effective dose (ED50) in data set [1] (setting [6]) amounted to 22 mg/kg; in data set [2] (setting [7]), 50 mg/kg. In data set [3], the TD50 was 270 mg/kg. The compound further gave an LD50 in data set [5] (po) of about 600 mg/kg.

For `CCN(CC)CC(=O)Nc1ccc(C2NC(=O)C(C)(C)c3ccccc32)cc1` (centres unmarked) [Example 16, 1,4-Dihydro-1-(4'-/N,N-diethylaminoacetyl/-amino-phenyl)-4,4-dimethyl-3(2H)-isoquinolinone], the “Protective Index” value in data set [1] was about 15. Further, in data set [1] (setting [6]), the ED50 was about 88 mg/kg. This compound also registered a TD50 in data set [3] of about 1300 mg/kg. In addition, in data set [5] (po), the LD50 is about 1600 mg/kg.
